How the values were obtained:
[1] = system: MCF-7 breast carcinoma cells; experiment: Paclitaxel multiparameter cytotoxicity in MCF-7 cells attached to ECM spots of the array (Cellomics Multiparameter Cytotoxicity 3 kit); type: cell-based, human; conditions: cells grown on matrix of collagen IV, collagen V and fibronectin in equal concentrations, compared with fibronectin alone
Protocol: The human breast adenocarcinoma cell line MCF-7 was purchased from American Type Culture Collection (ATCC). Cells were cultured in minimal essential medium (DMEM), supplemented with 10% FBS and antibiotics (100 IU/ml of penicillin G), then incubated at 37° C. in a humidified atmosphere of 5% CO2. […] MCF-7 cells were seeded into 4 well plates containing an exemplary microarray slide according to the present invention at a density of about 0.1×10^6 cells/ml in 5 ml complete medium (0.5×10^6 cells/slide, total 8 slides) and cultured at 37° C. After 7 h of incubation, non adherent cells were removed and the slide was washed 1× with complete culture medium. New media with varying concentrations of paclitaxel was added ranging from 0 nM-3 uM (0 nM, 3 nM, 10 nM, 30 nM, 100 nM, 300 nm, 1 μM, 3 μM). Cells were incubated for about 16 h at 37° C. Slides were processed using the protocol provided by the manufacturer of the Cellomics Multiparameter Cytotoxicity 3 kit, employing the reagents included in the kit. […] The resulting slides were kept protected from light and analyzed within about 24 h. […] Compartmental Analysis BioApplication (Cellomics) software was used to quantify fluorescent signal. […]

[2] = system: A549 lung cancer cell line; experiment: TGF-β-induced epithelial mesenchymal transition of A549 cells on MicroMatrix ECM array (e-cadherin / vimentin staining); type: cell-based, human
Protocol: Packages containing products which embody present invention (MicroMatrix™ slides) were removed from −20° C. and brought to room temperature (RT). Using sterile techniques, 4 MicroMatrix™ slides were removed from packaging and put into a 4-chamber slide tray. A549 cells (ATCC, Rockville, Md.) were cultured according to manufacturer's protocol in complete medium of DMEM containing 10% FBS and antibiotics (Life Technology, CA) in standard tissue culture treated T-75 flasks (Corning).
Cells were trypsinized with EDTA for 5 minutes and neutralized with 10 ml of complete medium. Neutralized cell suspensions were put into a 50 ml conical tube and centrifuged for 6 minutes at 1100 rpm. Five milliliters of complete medium containing 5×10^5 cells was added to each of 4 identical MicroMatrix™ slides in the slide tray. The tray was placed in a 37° C. incubator with 5% CO2 and cells were allowed to attach to ECM spots overnight (14 hrs).
Unattached cells and media were aspirated from the slides and 5 ml of media containing 1% FBS with or without 5 ng/ml of TGF-β were added to each chamber. After 24 hrs, media was aspirated from the chamber and 5 ml of 4% para-formaldehyde (PFA) in 1×PBS (fixation buffer) was added to each slide for 10 minutes at RT.
Fixation buffer was aspirated from chambers and fixed slides were stained for nuclei, e-cadherin and vimentin expression. Briefly, mouse anti-human e-cadherin antibody (BD, CA) and rabbit anti-human vimentin (Cell Signaling Technology) antibody were added to each of 4 slides at a 1:100 dilution in PBS at RT for 3 hours. […]
Cell adhesion was determined by the number of nuclei present on a spot. […] Cells adhered to ECM compositions that met the 25 cell/spot criteria were then analyzed for e-cadherin and vimentin expression using the same Bioapplication software. A ring was formed around segmented objects (nuclei) and fluorescence measurements for secondary channels were captured. Average intensities of e-cadherin and vimentin were calculated and normalized by cells per spot.

[3] = A549 on certain combinations of ECMs, 24 hrs, 5 ng/ml TGF-β, compared with other ECM compositions

Compound	cytotoxic response of MCF-7 cells to paclitaxel (same cytotoxicity parameters) [1]	e-cadherin expression (epithelial marker) [2, 3]	vimentin expression (mesenchymal marker) [2, 3]	A549 cell attachment ([2]; certain ECM compositions that promote attachment without TGF-β, upon addition of TGF-β)
CC(=O)O[C@H]1C(=O)[C@@]2(C)[C@H]([C@H](OC(=O)c3ccccc3)[C@]3(O)C[C@H](OC(=O)[C@H](O)[C@@H](NC(=O)c4ccccc4)c4ccccc4)C(C)=C1C3(C)C)[C@]1(OC(C)=O)CO[C@@H]1C[C@@H]2O [paclitaxel, Paclitaxel]	maintain a resistance to paclitaxel			
TGF-β		decreases in e-cadherin	increases in vimentin expression	cell detachment is observed
